Data: PubChem BioAssay AID2401 (Southern Research Specialized Biocontainment Screening …, 2010)
Several values for one entry are separate records, joined by “and”; a condition that tells them apart may be missing. Equal values may be shown once.

Test system: S. Typhimurium GFP reporter counter-screen, fluorescence, 4 h
Assay: nmpC-GFP reporter counter-screen in S. Typhimurium, dose response, counter-screen for PhoP regulon inhibitor project, Salmonella Typhimurium, GFP fluorescence (AID 2401);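 also: S. typhimurium with Mg-insensitive nmpC-GFP reporter grown at 10 µM Mg2+; drop in reporter fluorescence reflects general culture growth inhibition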

SMILES	IC50
C[C@H]1c2cccc(O)c2C(O)=C2C(=O)[C@]3(O)C(O)=C(C(N)=O)C(=O)[C@@H](N(C)C)[C@@H]3[C@@H](O)[C@@H]21	2.87 µM
CCn1cc(C(=O)NCCCO)c(=O)c2cc(F)c(N3CCN(C)CC3)cc21	46.8 µM
C=CC#CC[N+]1(CC#Cc2ccccc2)CCOCC1	34.3 µM
CCn1cc(C(=O)O)c(=O)c2cc(F)c(N3CCN(C(=S)NC(=O)c4c(OC)cccc4OC)CC3)cc21	54.2 µM
CCOC(=O)N1CCN(C(c2cccnc2)c2ccc3cccnc3c2O)CC1 (centres undefined)	41.8 µM
O=C1c2ccccc2NC(c2ccc(-c3cccc(Cl)c3)o2)N1O (centres undefined)	52.2 µM
Cc1cc(C)n(-c2nc(NCCN(C)C)c3c4c(sc3n2)CCCC4)n1	92.1 µM
Nc1c(Cl)ncnc1N/N=C/c1ccccn1	25.5 µM
CCCCCCCCCCOC(=O)Cn1c(COc2ccccc2OC)[n+](C)c2ccccc21	21.4 µM
Cc1[nH]n(-c2ccccc2)c(=O)c1/C=N/Nc1nncc(-c2ccccc2)n1	19.1 µM
CCCCCCCSc1cc(OC)c(CCN(C)C)cc1OC	57.2 µM
Clc1cc(Br)ccc1OCCCNCc1ccccc1	75.6 µM
CCN1/C(=C/C=C/c2sc3ccccc3[n+]2CC)Sc2ccccc21	32.9 µM
Fc1ccc(Nc2nc(NCc3ccco3)c3ccccc3n2)cc1	28.2 µM
Nc1nc2ccccc2n1Cc1ccc(Cl)c(Cl)c1	76.5 µM
COc1ccccc1CNCCc1ccc(F)cc1	35 µM
Oc1c(CN2CCc3ccccc3C2)cc(Cl)c2cccnc12	17.4 µM
Cc1ccc(C(C[N+](=O)[O-])c2c(-c3ccccc3O)[nH][nH]c2=O)cc1 (centres undefined)	14.9 µM
CN1CCN(C(c2ccc(C(F)(F)F)cc2)c2cc(Cl)c3cccnc3c2O)CC1 (centres undefined)	21 µM
O=c1cc2oc3cc(O)c(O)cc3c(-c3ccccc3[N+](=O)[O-])c-2cc1O	28.5 µM
CCCCCCCCCCCCCCCC[N+](C)(C)CCN(Cc1ccc(OC)cc1)c1ncccn1	20.2 µM
OC(c1cc(-c2ccc(C(F)(F)F)cc2)nc(C(F)(F)F)c1)C1CCCCN1 (centres undefined)	29.5 µM

SMILES	IC50
O=[N+]([O-])c1ccc(N/N=C/c2ccc[nH]2)cc1	62 µM
CNC[C@H](Cc1ccccc1)NC[C@@H](Cc1cccc2ccccc12)NCCc1ccc(C)cc1	26.2 µM
CCN(CC(=O)NC(C)(C)C)C(=O)COc1c(Cl)cc(Cl)c2ccc(C)nc12	82.4 µM
S=c1nc(C2CCCCC2)[nH][nH]1	99 µM
C/C(CC(=O)Nc1ccc(Cl)c(C(F)(F)F)c1)=N\NC(=O)c1cc2ccccc2cc1O	80.6 µM
CN1CCN(c2cc3c(cc2F)c(=O)c(C(=O)O)cn3CCF)CC1	0.93 µM
CN1CCN(C(c2ccc(Cl)cc2)c2cc(Cl)c3cccnc3c2O)CC1 (centres undefined)	33.5 µM
Oc1c(C(Nc2ccccn2)c2ccccn2)ccc2cccnc12 (centres undefined)	40.2 µM
Oc1c(C(c2ccccn2)N2CCOCC2)ccc2cccnc12 (centres undefined)	88.6 µM
CC1CCC(C(C)C)C(OC(=O)Cn2c(-c3ccc(Cl)cc3)[n+](C)c3ccccc32)C1 (centres undefined)	82.9 µM
Clc1ccc(CNCc2cccs2)cc1Cl	76.1 µM
CCCCCCCNC(=O)C1(CC2CC(c3cccc(Br)c3)=NO2)CCNCC1 (centres undefined)	37.7 µM
CCOc1ccc(NC(=O)c2ccc(NC(=O)c3cn4c5c(c(N6CCN(C)CC6)c(F)cc5c3=O)OCC4C)cc2)cc1 (centres undefined)	6.51 µM
c1ccc(-c2nnc(-c3ccccn3)nc2NC2CCCCC2)cc1	78.3 µM
CCc1ccc(-c2nn(-c3ccccc3)cc2CSC(=N)N)cc1	53.1 µM
CCOC(=O)N1CCN(C(=O)c2cn(CC)c3cc(N4CCN(C)CC4)c(F)cc3c2=O)CC1	12 µM
N=c1n(CC(=O)c2ccc(Br)s2)c2ccccc2n1Cc1ccccc1	40.4 µM
CC1CCC(C(C)C)C(OC(=O)Cn2c(COc3ccccc3)[n+](C)c3ccccc32)C1 (centres undefined)	40.4 µM
CN(C)c1ccc(O)c2c1CC1CC3[C@@H](N(C)C)C(=O)C(C(N)=O)=C(O)[C@]3(O)C(=O)C1=C2O (some centres undefined)	4.76 µM
CCCCCOc1ccc(CSC(=N)N)cc1[N+](=O)[O-]	46.8 µM
COc1c(F)c(F)cc2c(=O)c(C(=O)O)cn(C3CC3)c12	85.6 µM
O=C(Nc1cccc(N=Cc2cc(Br)cc(Br)c2O)c1)c1ccco1	104 µM

SMILES	IC50
CCCNC(=O)c1cn(CC)c2cc(N3CCN(C)CC3)c(F)cc2c1=O	48.2 µM
CCCCCNCC(=O)Nc1cccc(C(=O)Nc2cccc(C(F)(F)F)c2)c1	83.2 µM
Clc1ccc(CN2CCC(c3nc4ccc(Cl)cc4[nH]3)CC2)cc1	22.4 µM
O=C(N/N=C/c1ccc(O)cc1O)/C(=C/c1ccccc1)CCO	124 µM
CCn1cc(C(=O)NCCN(C)C)c(=O)c2cc(F)c(N3CCN(C)CC3)cc21	89.8 µM
CCCCCCCCCCOC(=O)Cn1c(COc2cccc(C)c2)[n+](C)c2ccccc21	19.7 µM
Nc1cc(Cl)c2nonc2c1[N+](=O)[O-]	54.1 µM
CC(C)CCNCC(O)CON=C1c2ccccc2-c2ccccc21 (centres undefined)	126 µM
COc1ccc(CN2C(=O)Cc3c2nc(N)c2c(N)nc(N4CCCCC4)c(C#N)c32)cc1	120 µM
COc1cccc(/C=N\NC(=O)Cn2nnc3ccccc32)c1O	57.6 µM
Cc1ccc(S(=O)(=O)Nc2cc(Cl)c(O)c3ncccc23)cc1	29 µM
CCN1CCN(C(c2ccc(C(F)(F)F)cc2)c2ccc3cccnc3c2O)CC1 (centres undefined)	39.4 µM
CCCCCCCNC(=O)C1(CC2CC(c3ccc(Cl)cc3)=NO2)CCNCC1 (centres undefined)	42.5 µM
Cc1ccc(Nc2cc(C)c3ccc(O)cc3n2)cc1C	146 µM
O=[N+]([O-])c1cc(F)c2cccnc2c1O	9.05 µM
CNC(=S)N1CCN(c2c(F)cc3c(=O)c(C(=O)O)cn(C4CC4)c3c2OC)CC1C (centres undefined)	44.2 µM
O=C(N/N=C/c1cc2c3c(c1O)CCCN3CCC2)c1ccccc1O	95.3 µM
CCc1ccc(NC(=O)C[n+]2cc(-c3ccc(C)cc3)n3c2CCC3)cc1	85.9 µM
O=C(N/N=C\c1cccc([N+](=O)[O-])c1O)C1COc2ccccc2O1 (centres undefined)	54.6 µM
Cc1ccccc1Nc1cc(C)c2c(O)cccc2n1	41.2 µM
N=c1c2c(n(Cc3ccc(Br)cc3)c3c1CCC3)CCCC2	132 µM
COC1C(OC(=O)c2ccc(C)[nH]2)C(O)C(Oc2ccc3c(O)c(NC(=O)c4ccc(O)c(CC=C(C)C)c4)c(=O)oc3c2Cl)OC1(C)C (centres undefined)	16.5 µM

SMILES	IC50
Cc1nc2c(=O)n(C)c(=O)nc-2n(C)n1	1.09 µM
O=C(N/N=C/c1cccs1)c1cccs1	67.8 µM
NC(=NCCCCCCN=C(N)/N=C(\N)Nc1ccc(Cl)cc1)/N=C(\N)Nc1ccc(Cl)cc1	5.5 µM and 9.19 µM and 14.6 µM
COc1nsnc1NS(=O)(=O)c1ccc(NC(=S)NC(=O)c2cccnc2)cc1	42.6 µM
CCCCCCCCCCOC(=O)Cn1c(COc2ccc(Cl)cc2)[n+](C)c2ccccc21	19.5 µM
Cc1ccc(-c2c[n+](CC(=O)Nc3nc(-c4ccc(F)cc4)cs3)c3n2CCC3)cc1	42.3 µM
C/C(=C\C(=O)OCCCCCCCCC(=O)O)C[C@@H]1OC[C@H](C[C@@H]2O[C@H]2[C@@H](C)[C@H](C)O)[C@@H](O)[C@H]1O	9.67 µM
O=C(CN1CC(c2ccccc2)CC1=O)N/N=C/c1cc(Br)ccc1O (centres undefined)	139 µM
O=C(N/N=C/c1cc([N+](=O)[O-])ccc1O)C1CC1	34 µM
Cc1ccc(Nc2nc(N)c3ccccc3n2)cc1Cl	52.2 µM
CC(C)COc1ccc(Cc2cnc(N)nc2N)cc1	61.8 µM
CN(C)c1ccc(/C=C/c2ccc3c4ccccc4ccc3[n+]2-c2ccccc2)cc1	18.8 µM
Nc1nc(N)c(Cc2ccc(Cl)cc2Cl)c(N)n1	100 µM
CCC(C)NC(=O)c1cn(CC)c2cc(N3CCN(C)CC3)c(F)cc2c1=O (centres undefined)	70.6 µM
C[C@H]1O[C@@H](n2cc(F)c(=O)[nH]c2=O)[C@H](O)[C@@H]1O	38.6 µM
Nc1nc2ccccc2n1CCOc1ccccc1Cl	71.8 µM
O=C(N/N=C/c1ccc(Sc2ccccn2)o1)c1cc2ccccc2cc1O	107 µM
COC(=O)c1cc(C)nc2c1C(=O)C(=O)C=C2N1CCOCC1	118 µM
Nc1ncn(C2O[C@H](CO)[C@@H](O)[C@H]2O)c(=O)n1 (some centres undefined)	30.8 µM
C/C(=N\N=C(N)N)c1ccc(Cl)c(Cl)c1	94.2 µM
Nc1nc(N2CCN(C/C=C/c3ccccc3)CC2)nc2ccccc12	107 µM
Cc1ccc(NC(=O)NCC2CCN(Cc3cccc(Cl)c3)CC2)cc1Cl	70.2 µM

SMILES	IC50
O=c1[nH][nH]c(-c2ccccc2O)c1C(C[N+](=O)[O-])c1ccc(Br)cc1 (centres undefined)	51.7 µM
CN(C)C1C(=O)C(C(N)=O)=C(O)C2(O)C(=O)C3=C(O)c4c(O)cccc4C(C)(O)C3C(O)C12 (centres undefined)	0.58 µM
Oc1ccc(CN2CCc3ccccc3C2)c2cccnc12	18.5 µM
c1ccc(C2CNCc3c2ccc2ccccc32)cc1 (centres undefined)	138 µM
CN(C)[C@@H]1C(=O)C(C(N)=O)=C(O)[C@@]2(O)C(=O)C3=C(O)c4c(O)cccc4[C@@](C)(O)C3[C@H](O)C12 (some centres undefined)	0.79 µM
C/C(=N\Nc1ncnc2sc(C)c(C)c12)c1ccccn1	26.4 µM
Cc1cc(SCC(=O)N/N=C/c2ccc(O)c(O)c2O)c(C)cc1Br	30.6 µM
CCCCCCCCCn1c2c(c(=N)c3c1CCC3)CCCC2	31.3 µM
OC(c1cc(C(F)(F)F)nc2c(Cl)cc(Cl)cc12)C1CCCCN1 (centres undefined)	80.5 µM
CCC(C)N1CCC2(CC1)N=c1c(c3c4c5c(C)c(O)c3c(O)c1=NC(=O)C(C)=CC=C[C@H](C)[C@H](O)[C@@H](C)[C@@H](O)[C@@H](C)[C@H](OC(C)=O)[C@H](C)[C@@H](OC)C=CO[C@@](C)(O5)C4=O)N2 (some centres undefined)	2.28 µM
Cc1ccc(Nc2cc(C)c3c(O)cccc3n2)cc1C	75.3 µM
O=c1c2c(-c3ccccc3)csc2nc2c3ccccc3c(NCCN3CCOCC3)nn12	147 µM
Cc1ccc(S(=O)(=O)NC2=NCN(CCOC(=O)c3ccc([N+](=O)[O-])cc3)CN2)cc1	145 µM
O=[N+]([O-])c1ccc(Sc2nc3ccccc3o2)c([N+](=O)[O-])c1	103 µM
Cc1ccc(S(=O)(=O)/N=C2/C=C(Sc3ncn[nH]3)C(=O)c3ccccc32)cc1	32.6 µM
COC12C(COC(N)=O)C3=C(C(=O)C(C)=C(N)C3=O)N1CC1C2N1C (centres undefined)	77.2 µM
Oc1ccc(Cl)cc1Cc1cc(Cl)ccc1O	38.6 µM
O=C(N/N=C\C=C\c1ccc([N+](=O)[O-])o1)c1cccs1	20.9 µM
CCn1cc(C(=O)O)c(=O)c2cnc(N3CCNCC3)nc21	68.4 µM
COc1ccc(OCc2n(CC(=O)OC3CC(C)CCC3C(C)C)c3ccccc3[n+]2C)cc1 (centres undefined)	39.6 µM
Cc1ccc(Nc2nc(NCc3ccco3)c3ccccc3n2)cc1	22.2 µM
